Source: patent US9447148B2, “Melanocortin-1 receptor-specific cyclic peptides” (Palatin Technologies, Inc., priority 2009, dated 2016)
Values belong to the compound of their own block, whether it stands above or below them. Bridge positions count the residues as written; N and C are the ends. Square brackets hold non-standard residues; d marks the D form. Peptide text beside a SMILES is read from it. dPhe(4-Cl) = N[C@H](Cc1ccc(Cl)cc1)C(=O)O; dPhe(4-F) = N[C@H](Cc1ccc(F)cc1)C(=O)O; dPhe(2-F) = N[C@H](Cc1ccccc1F)C(=O)O; Nle = CCCC[C@H](N)C(=O)O; Orn = NCCC[C@H](N)C(=O)O; Dab = NCC[C@H](N)C(=O)O; Dap = NC[C@H](N)C(=O)O

Columns and labels:
hMCR-1 = hMCR-1 (Homo sapiens (Human), UniProt Q01726); assay: Assay for agonist activity: intracellular cAMP accumulation in HBL human melanoma cells; format: cell-based; conditions: for EC50: HBL cells expressing hMCR-1, averaged, read-out: MC-1 EC50 (average; cAMP HBL)
Experimental: Confluent HBL cells that express hMCR-1 or HEK-293 cells that express recombinant hMCR-4 were detached from culture plates by incubation in enzyme-free cell dissociation buffer. Dispersed cells were suspended in Earle's Balanced Salt Solution containing 10 mM HEPES (pH 7.5), 1 mM MgCl2, 1 mM glutamine, 0.5% albumin and 0.3 mM 3-isobutyl-1-methyl-xanthine (IBMX), a phosphodiesterase inhibitor. The cells were plated in 96-well plates at a density of 0.4×10^5 cells per well for HBL cells and 0.5×10^5 cells per well for HEK-293 cells and pre-incubated for 10 minutes. Cells were exposed for 15 minutes at 37° C. to peptides of the present invention dissolved in DMSO (final DMSO concentration of 1%) at a concentration range of 0.05-5000 nM in a total assay volume of 200 μL. […] Data analysis was performed by nonlinear regression analysis with Graph-Pad Prism® software.
(§1) Peptides of the following structures were synthesized and averaged MCR-1 and MCR-4 Ki values were determined as indicated. […] All results are expressed in nM except for Emax values, which are percentage values. Peptides with the captioned primary sequence were synthesized and purified as described in Section 5 above, with the resulting peptide having the structure depicted.

hMCR-4 = hMCR-4 (Homo sapiens (Human), UniProt P32245); assay: Competitive inhibition binding assay using [I125]-NDP-α-MSH, hMCR-4; conditions: membrane homogenates of HEK-293 cells, human recombinant receptor, averaged, read-out: MC-4 Ki (average)
Experimental: (§2) A competitive inhibition binding assay was performed using membrane homogenates prepared from HEK-293 cells that express recombinant hMCR-1a or hMCR-4 (in each instance where the h prefix refers to human), or alternatively membrane homogenates from B16-F10 mouse melanoma cells containing endogenous murine MCR-1. In the examples that follow, all MCR-1 and MCR-4 values are for human recombinant receptors, unless otherwise noted. Assays were performed in 96 well polypropylene round-bottom plates (VWR catalog number 12777-030). […] After incubation for 90 minutes at 37° C., the assay mixture was filtered onto GF/B Unifilter plates (Perkin-Elmer catalog number 6005177) and washed with 3 mL of ice-cold buffer per well. Filters were air dried and 35 μL of scintillation cocktail added to each well. Plates were counted in a Microbeta counter for bound radioactivity. […] Each assay was conducted in duplicate and the actual mean values are described, with results less than 0% reported as 0%. Ki values for peptides of the present invention were determined using Graph-Pad Prism® curve-fitting software.
as §1

hMCR-1a = hMCR-1a (Homo sapiens (Human), UniProt Q01726); assay: Competitive inhibition binding assay using [I125]-NDP-α-MSH, hMCR-1a; conditions: membrane homogenates of HEK-293 cells, human recombinant receptor, averaged, read-out: MC-1 Ki (average)
Experimental: as §2, §1

Sequence of hMCR-1 (Q01726 whole entry): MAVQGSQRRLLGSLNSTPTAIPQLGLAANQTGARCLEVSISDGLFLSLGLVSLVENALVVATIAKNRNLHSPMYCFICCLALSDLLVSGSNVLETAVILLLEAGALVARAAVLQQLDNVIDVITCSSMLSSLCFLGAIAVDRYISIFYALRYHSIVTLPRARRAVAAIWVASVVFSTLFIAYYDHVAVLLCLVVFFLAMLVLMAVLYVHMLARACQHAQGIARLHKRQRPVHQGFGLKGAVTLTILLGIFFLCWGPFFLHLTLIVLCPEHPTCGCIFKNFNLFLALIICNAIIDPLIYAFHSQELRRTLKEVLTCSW
Sequence of hMCR-1a (Q01726 whole entry): as above
Sequence of hMCR-4 (P32245 whole entry): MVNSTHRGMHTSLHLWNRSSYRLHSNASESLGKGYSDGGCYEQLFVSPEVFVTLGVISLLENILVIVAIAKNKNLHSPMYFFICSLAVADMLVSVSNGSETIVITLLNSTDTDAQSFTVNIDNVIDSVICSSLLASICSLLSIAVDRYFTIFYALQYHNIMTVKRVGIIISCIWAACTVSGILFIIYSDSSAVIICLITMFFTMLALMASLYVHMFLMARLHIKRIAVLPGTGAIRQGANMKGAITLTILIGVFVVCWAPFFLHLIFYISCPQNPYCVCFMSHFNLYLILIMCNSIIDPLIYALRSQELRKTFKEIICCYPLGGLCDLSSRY

EC50 (hMCR-1): 0.175 nM
Ki (hMCR-4): 7380 nM
Ki (hMCR-1a): 2 nM
SMILES: CCCC[C@H](NC(C)=O)C(=O)N[C@H]1CCC(=O)NCC[C@@H](C(=O)N[C@@H](CCCCN)C(N)=O)NC(=O)[C@H](CCCNC(=N)N)NC(=O)[C@@H](Cc2ccccc2)NC(=O)[C@H](Cc2c[nH]cn2)NC1=O [Example 9.39, Ac-Nle-cyclo(Glu-His-D-Phe-Arg-Dab)-Lys-NH2] (Ac-[Nle]EH[dF]R[Dab]K-NH2; lactam 2-6)

EC50 (hMCR-1): 44 nM
Ki (hMCR-4): 10000 nM
Ki (hMCR-1a): 645 nM
SMILES: CCCC[C@H](NC(C)=O)C(=O)N[C@H]1CCC(=O)NCC[C@@H](C(N)=O)NC(=O)[C@H](C)NC(=O)[C@@H](Cc2ccccc2)NC(=O)[C@H](Cc2c[nH]cn2)NC1=O [Example 9.33, Ac-Nle-cyclo(Glu-His-D-Phe-Ala-Dab)-NH2] (Ac-[Nle]EH[dF]A[Dab]-NH2; lactam 2-6)

EC50 (hMCR-1): 0.1 nM
Ki (hMCR-4): 1240 nM
Ki (hMCR-1a): 2 nM
SMILES: CCCC[C@H](NC(C)=O)C(=O)N[C@H]1CCC(=O)NCC[C@@H](C(N)=O)NC(=O)[C@H](CCCNC(=N)N)NC(=O)[C@@H](Cc2ccc(Cl)cc2)NC(=O)[C@H](CCCN)NC1=O [Example 9.59, Ac-Nle-cyclo(Glu-Orn-D-Phe(4-Cl)-Arg-Dab)-NH2] (Ac-[Nle]E[Orn][dPhe(4-Cl)]R[Dab]-NH2; lactam 2-6)

EC50 (hMCR-1): 0.12 nM
Ki (hMCR-4): 10000 nM
Ki (hMCR-1a): 2 nM
SMILES: CCCC[C@H](NC(C)=O)C(=O)N[C@H]1CCC(=O)NCC[C@@H](C(N)=O)NC(=O)[C@H](CCCNC(=N)N)NC(=O)[C@@H](Cc2ccc(OC)cc2)NC(=O)[C@H](CCCN)NC1=O [Example 9.64, Ac-Nle-cyclo(Glu-Orn-D-Phe(4-OMe)-Arg-Dab)-NH2] (Ac-[Nle]E[Orn][dY](Me)R[Dab]-NH2; lactam 2-6)

EC50 (hMCR-1): 1 nM
Ki (hMCR-4): 10000 nM
Ki (hMCR-1a): 20 nM
SMILES: CCCC[C@H](NC(C)=O)C(=O)N[C@H]1CCC(=O)NCC[C@@H](C(N)=O)NC(=O)[C@H](CCCNC(=N)N)NC(=O)[C@@H](Cc2ccc(F)cc2)NC(=O)[C@H](CCCN)NC1=O [Example 9.61, Ac-Nle-cyclo(Glu-Orn-D-Phe(4-F)-Arg-Dab)-NH2] (Ac-[Nle]E[Orn][dPhe(4-F)]R[Dab]-NH2; lactam 2-6)

EC50 (hMCR-1): 0.32 nM
Ki (hMCR-4): 10000 nM
Ki (hMCR-1a): 7 nM
SMILES: CCCC[C@H](NC(C)=O)C(=O)N[C@H]1CCC(=O)NCC[C@@H](C(N)=O)NC(=O)[C@H](CCCNC(=N)N)NC(=O)[C@@H](Cc2ccccc2)NC(=O)[C@H](Cc2c[nH]cn2)NC1=O [Example 9.32, Ac-Nle-cyclo(Glu-His-D-Phe-Arg-Dab)-NH2] (Ac-[Nle]EH[dF]R[Dab]-NH2; lactam 2-6)

The next lines start with the compound.

SMILES: CCCC[C@H](NC(C)=O)C(=O)N[C@H]1CC(=O)NC[C@@H](C(=O)N[C@@H](Cc2c[nH]c3ccccc23)C(N)=O)NC(=O)[C@H](CCCNC(=N)N)NC(=O)[C@@H](Cc2ccccc2)NC(=O)[C@H](Cc2c[nH]cn2)NC1=O [Example 9.4, Ac-Nle-cyclo(Asp-His-D-Phe-Arg-Dap)-Trp-NH2] (Ac-[Nle]DH[dF]R[Dap]W-NH2; lactam 2-6)
EC50 (hMCR-1): 0.195 nM
Ki (hMCR-4): 1320 nM
Ki (hMCR-1a): 2 nM

SMILES: CCCC[C@H](NC(C)=O)C(=O)N[C@H]1CCC(=O)NC[C@@H](C(=O)N[C@@H](Cc2c[nH]c3ccccc23)C(=O)O)NC(=O)[C@H](CCCNC(=N)N)NC(=O)[C@@H](Cc2ccccc2)NC(=O)[C@H](Cc2c[nH]cn2)NC1=O [Example 9.26, Ac-Nle-cyclo(Glu-His-D-Phe-Arg-Dap)-Trp-OH]
Emax (hMCR-1; HBL, HBL cells, maximum efficacy compared to reference agonist NDP-α-MSH, read-out: MC-1 Emax (average; cAMP HBL)): 81%
Ki (hMCR-4): 4700 nM
Ki (hMCR-1a): 1 nM

SMILES: CCCC[C@H](NC(C)=O)C(=O)N[C@H]1CCC(=O)NCC[C@@H](C(=O)N[C@@H](Cc2c[nH]c3ccccc23)C(N)=O)NC(=O)CNC(=O)[C@@H](Cc2ccccc2)NC(=O)[C@H](Cc2c[nH]cn2)NC1=O [Example 9.34, Ac-Nle-cyclo(Glu-His-D-Phe-Gly-Dab)-Trp-NH2] (Ac-[Nle]EH[dF]G[Dab]W-NH2; lactam 2-6)
EC50 (hMCR-1): 4 nM
Ki (hMCR-4): 10000 nM
Ki (hMCR-1a): 9 nM

SMILES: CCCC[C@H](NC(C)=O)C(=O)N[C@H]1CCC(=O)NCC[C@@H](C(N)=O)NC(=O)[C@H](CCCNC(=N)N)NC(=O)[C@@H](Cc2ccccc2F)NC(=O)[C@H](CCCN)NC1=O [Example 9.60, Ac-Nle-cyclo(Glu-Orn-D-Phe(2-F)-Arg-Dab)-NH2] (Ac-[Nle]E[Orn][dPhe(2-F)]R[Dab]-NH2; lactam 2-6)
EC50 (hMCR-1): 0.8 nM
Ki (hMCR-4): 10000 nM
Ki (hMCR-1a): 18 nM

SMILES: CCCC[C@H](NC(C)=O)C(=O)N[C@H]1CCC(=O)NCC[C@@H](C(=O)N[C@@H](Cc2c[nH]c3ccccc23)C(N)=O)NC(=O)[C@H](C)NC(=O)[C@@H](Cc2ccccc2)NC(=O)[C@H](Cc2c[nH]cn2)NC1=O [Example 9.35, Ac-Nle-cyclo(Glu-His-D-Phe-Ala-Dab)-Trp-NH2] (Ac-[Nle]EH[dF]A[Dab]W-NH2; lactam 2-6)
EC50 (hMCR-1): 0.115 nM
Ki (hMCR-4): 10000 nM
Ki (hMCR-1a): 0.8 nM
